Laboratory results: patent US11932640B1, “Pyrrolo[3,4-b]quinoline compounds as antibacterial agents” (KING FAISAL UNIVERSITY, priority 2023, dated 2024)
Values after ≈ are worked out from the molar mass of the structure shown. Like-named read-outs stand apart in the source and are kept apart here.

Columns and labels:
DNA gyrase from E. coli = target: T1, DNA gyrase from E. coli (Escherichia coli, UniProt P0AES4+P0AES6); test: E. coli DNA gyrase inhibition (Inspiralis assay); assay type: biochemical
T1 construct: purchased Inspiralis
T1 sequence (P0AES4 whole entry, one chain of several): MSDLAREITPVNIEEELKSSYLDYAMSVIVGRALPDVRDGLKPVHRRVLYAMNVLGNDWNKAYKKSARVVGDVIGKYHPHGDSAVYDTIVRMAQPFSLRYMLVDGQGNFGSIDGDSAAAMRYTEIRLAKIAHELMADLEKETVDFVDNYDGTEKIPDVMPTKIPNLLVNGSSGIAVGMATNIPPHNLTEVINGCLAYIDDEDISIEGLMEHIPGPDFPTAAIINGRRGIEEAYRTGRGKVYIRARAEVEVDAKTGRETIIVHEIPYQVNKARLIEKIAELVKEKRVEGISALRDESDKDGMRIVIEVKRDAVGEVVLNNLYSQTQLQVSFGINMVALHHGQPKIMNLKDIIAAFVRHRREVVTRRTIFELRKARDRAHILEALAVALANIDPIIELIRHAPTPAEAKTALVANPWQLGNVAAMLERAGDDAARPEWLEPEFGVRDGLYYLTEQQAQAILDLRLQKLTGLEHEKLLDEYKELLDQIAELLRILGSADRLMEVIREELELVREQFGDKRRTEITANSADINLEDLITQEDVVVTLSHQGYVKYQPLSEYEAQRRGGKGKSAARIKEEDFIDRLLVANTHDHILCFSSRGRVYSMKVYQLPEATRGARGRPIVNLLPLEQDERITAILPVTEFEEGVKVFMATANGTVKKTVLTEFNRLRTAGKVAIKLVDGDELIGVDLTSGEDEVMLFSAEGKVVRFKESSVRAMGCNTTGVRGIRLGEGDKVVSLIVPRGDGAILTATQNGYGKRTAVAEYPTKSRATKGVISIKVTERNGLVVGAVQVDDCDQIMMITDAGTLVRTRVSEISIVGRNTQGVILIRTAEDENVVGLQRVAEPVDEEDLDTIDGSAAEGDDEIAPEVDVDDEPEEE
Experimental: Inhibitory potencies were investigated utilizing the Inspiralis assay on streptavidin-coated 96-well microtiter plates. First, the plates were rehydrated with buffer (20 mM Tris-HCl with pH 7.6, 0.01% w/v BSA, 0.05% v/v Tween 20, 137 mM NaCl) and the biotinylated oligonucleotide was then immobilized. After washing off the unbound oligonucleotide, the enzyme test was performed. […] Reaction solutions were incubated at 37° C. for 30 min. After that, the TF buffer (50 mM NaOAc with pH 5.0, 50 mM NaCl and 50 mM MgCl2) was added to terminate the enzymatic reaction. […] The fluorescence was measured with a microplate reader (BioTek Synergy H4, excitation: 485 nm, emission: 535 nm). Initial screening was done at 100 or 10 μM concentration of inhibitors. […] GraphPad Prism software was used to calculate the IC50 values. The result is given as the average value of three independent measurements.

[1] = test system: Staphylococcus epidermidis; test: Antibacterial MIC, CLSI M07-A10 dilution; assay type: cell-based
[2] = test system: Mycobacterium tuberculosis H37Rv strain; test: Anti-tubercular alamar blue microplate MIC; assay type: cell-based; conditions: 168 h, M. tuberculosis H37Rv, 7 days at 37° C., read-out: anti-mycobacterial activity (MIC)
[3] = test system: Bacillus subtilis MTCC 441; test: Antibacterial MIC, CLSI M07-A10 dilution; assay type: cell-based; conditions: MTCC441
[4] = test system: Escherichia coli MTCC 443; test: Antibacterial MIC, CLSI M07-A10 dilution; assay type: cell-based; conditions: MTCC443
[5] = test system: Enterococcus faecium ATCC 51559 (VRE resistant); test: Antibacterial MIC, CLSI M07-A10 dilution; assay type: cell-based
[6] = test system: Enterococcus faecium ATCC 35667; test: Antibacterial MIC, CLSI M07-A10 dilution; assay type: cell-based; conditions: ATCC35667
[7] = test system: Staphylococcus aureus ATCC BAA-1556 (MERSA resistant); test: Antibacterial MIC, CLSI M07-A10 dilution; assay type: cell-based; conditions: ATCCBAA1556
[8] = test system: Pseudomonas aeruginosa MTCC 741; test: Antibacterial MIC, CLSI M07-A10 dilution; assay type: cell-based; conditions: MTCC741
[9] = test system: Staphylococcus aureus ATCC 29213; test: Antibacterial MIC, CLSI M07-A10 dilution; assay type: cell-based; conditions: ATCC29213
[10] = test system: Klebsiella pneumonia MTCC 618; test: Antibacterial MIC, CLSI M07-A10 dilution; assay type: cell-based; conditions: Klebsiella pneumoniae, MTCC618

Row | Structure (SMILES) | IC50 (DNA gyrase from E. coli) [nM] | MIC [1] [µg/mL] | MIC [2] [µg/mL] | MIC [3] [µg/mL] | MIC [4] [µg/mL] | MIC [5] [µg/mL] | MIC [6] [µg/mL] | MIC [7] [µg/mL] | MIC [8] [µg/mL] | MIC [9] [µg/mL] | MIC ([10]; Klebsiella pneumonia MTCC 618, read-out: MIC) [µg/mL] | MIC [10] [µg/mL]
1 | CCCCCN(C)Cc1cc(C(=O)O)ccc1N1C(=O)c2nc3c(NC)cc(F)cc3c(O)c2C1=O [Compound 12, 4-(7-fluoro-9-hydroxy-5-(methylamino)-1,3-dioxo-1,3-dihydro-2H-pyrrolo[3,4-b]quinolin-2-yl)-3-((methyl(pentyl)amino)methyl)benzoic acid] | 16 | 0.75 (≈ 1.52 µM) | 4 (≈ 8.09 µM) | 0.5 (≈ 1.01 µM) | 4 (≈ 8.09 µM) | 0.75 (≈ 1.52 µM) | 0.5 (≈ 1.01 µM) | 2 (≈ 4.04 µM) | 1 (≈ 2.02 µM) | 1 (≈ 2.02 µM) | 1 (≈ 2.02 µM) | 
2 | CN[C@H](CC(C)C)C(=O)N[C@H]1C(=O)N[C@@H](CC(N)=O)C(=O)N[C@H]2C(=O)N[C@H]3C(=O)N[C@H](C(=O)N[C@H](C(=O)O)c4cc(O)cc(O)c4-c4cc3ccc4O)[C@H](O)c3ccc(c(Cl)c3)Oc3cc2cc(c3O[C@@H]2O[C@H](CO)[C@@H](O)[C@H](O)[C@H]2O[C@H]2C[C@](C)(N)[C@H](O)[C@H](C)O2)Oc2ccc(cc2Cl)[C@H]1O [Vancomycin, reference compound] |  |  |  |  |  |  |  |  |  |  |  | > 128
